Data: US10294229B2, “Heteroaryl substituted aminopyridine compounds” (BRISTOL-MYERS SQUIBB COMPANY, priority 2015, dated 2019)
Where a name gives a salt, the structure may show the parent alone.

Experiments:
IRAK4 = IRAK4 (Homo sapiens (Human), UniProt Q9NWZ3); assay: IRAK4 Inhibition Assay; type: biochemical; details: ATP 500 μM; IRAK4 0.6 nM
Procedure, shortened: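 Enzyme 0.6 nM, ATP 500 μM, FL-peptide 1.5 μM, DMSO 1.6%; HEPES pH 7.2/MgCl2/Brij 35/DTT buffer. RT, 60 min, EDTA stop. Mobility-shift product/substrate ratio; % inhib vs no-enzyme and vehicle controls.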

[1] = Caco-2 Permeability Assay; type: in vitro ADME; details: human, Caco-2, test compound 3 μM
Procedure, shortened: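 Bidirectional permeability measured over 2 h at 37° C, compound dosed at 3 μM in the donor compartment (apical for absorptive, basolateral for secretive) with plain buffer as receiver.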

[2] = test system: Human whole blood stimulated with a TLR2 agonist (lipoteichoic acid), IL-6 levels; assay: IRAK4 Whole Blood Assay; type: cell-based; details: Homo sapiens, lipoteichoic acid 10 μg/mL
Procedure, shortened: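 ACD-A-anticoagulated human whole blood was preincubated with compounds for 60 min at 37 °C under 5% CO2. It was then stimulated with 10 μg/mL lipoteichoic acid (final) in RPMI for 5 h. IL-6 in plasma supernatants was measured by flow cytometry bead assay.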

Sequence of IRAK4 (Q9NWZ3 whole entry, species assumed): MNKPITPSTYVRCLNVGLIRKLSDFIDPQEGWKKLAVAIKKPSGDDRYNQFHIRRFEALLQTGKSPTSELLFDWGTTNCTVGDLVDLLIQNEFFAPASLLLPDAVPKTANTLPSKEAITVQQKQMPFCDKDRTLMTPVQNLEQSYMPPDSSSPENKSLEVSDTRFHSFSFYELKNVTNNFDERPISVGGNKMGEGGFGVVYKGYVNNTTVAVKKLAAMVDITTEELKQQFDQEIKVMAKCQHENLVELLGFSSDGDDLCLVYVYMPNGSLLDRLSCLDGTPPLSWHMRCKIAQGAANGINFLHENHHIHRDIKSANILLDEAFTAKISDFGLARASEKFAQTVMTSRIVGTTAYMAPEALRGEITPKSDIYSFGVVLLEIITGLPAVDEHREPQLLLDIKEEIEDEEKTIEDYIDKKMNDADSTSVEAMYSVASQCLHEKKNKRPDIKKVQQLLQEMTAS

| Structure (SMILES) | IC50 (IRAK4) | Papp at 2 h, 3 µM [1] | EC50 [2] |
| --- | --- | --- | --- |
| COC(=O)N1CCC(c2cn(-c3cnc(-n4ncc5cc(C#N)cnc54)cc3NC(C)C)nn2)CC1 [Example 338, methyl 4-(1-(6-(5-cyano-1H-pyrazolo[3,4-b]pyridin-1-yl)-4-(isopropylamino)pyridin-3-yl)-1H-1,2,3-triazol-4-yl)piperidine-1-carboxylate] | 6 nM | 17.9 ×10⁻⁶ cm/s | 380 nM |
| CC(C)Nc1cc(-n2ncc3cc(C#N)cnc32)ncc1-c1cn([C@@H]2CCN(C(=O)C(C)(C)C)C[C@H]2O)nn1 (single isomer, unassigned) [Example 206] | 3 nM | 2 ×10⁻⁶ cm/s | 1900 nM |
| COC(=O)N1CC[C@@H](n2cc(-c3cnc(-n4ncc5cc(C#N)cnc54)cc3NC3CC3)nn2)[C@](C)(O)C1 (relative stereo) [Example 208, (trans)-methyl 4-(4-(6-(5-cyano-1H-pyrazolo[3,4-b]pyridin-1-yl)-4-(cyclopropylamino)pyridin-3-yl)-1H-1,2,3-triazol-1-yl)-3-hydroxy-3-methylpiperidine-1-carboxylate] | 6 nM | 2.6 ×10⁻⁶ cm/s | 1510 nM |
| CC(C)Nc1cc(-n2ncc3cc(C#N)cnc32)ncc1-c1cn(C2CCN(C)C2=O)nn1 (stereo not drawn) [Example 21, 1-(4-(isopropylamino)-5-(1-(1-methyl-2-oxopyrrolidin-3-yl)-1H-1,2,3-triazol-4-yl)pyridin-2-yl)-1H-pyrazolo[3,4-b]pyridine-5-carbonitrile] | 4 nM | 4.2 ×10⁻⁶ cm/s | 320 nM |
| CC(=O)N1CCC[C@@H](c2cc(-c3cnc(-n4ncc5cc(C#N)cnc54)cc3NC(C)C)on2)C1 [Example 407, (R)-1-(5-(3-(1-acetylpiperidin-3-yl)isoxazol-5-yl)-4-(isopropylamino)pyridin-2-yl)-1H-pyrazolo[3,4-b]pyridine-5-carbonitrile] | 1 nM | 25 ×10⁻⁶ cm/s | 290 nM |
| CC(C)Nc1cc(-n2ncc3cc(C#N)cnc32)ncc1-c1cn([C@H]2CCN(C(=O)C(C)(C)C)C[C@H]2O)nn1 [Example 179, 1-(5-(1-((3R,4S)-3-hydroxy-1-pivaloylpiperidin-4-yl)-1H-1,2,3-triazol-4-yl)-4-(isopropylamino)pyridin-2-yl)-1H-pyrazolo[3,4-b]pyridine-5-carbonitrile] | 7 nM | 1.8 ×10⁻⁶ cm/s | 680 nM |
| CC(C)CCn1cc(-c2cnc(-n3ncc4cc(C#N)cnc43)cc2NC(C)C)nn1 [Example 10, 1-(5-(1-isopentyl-1H-1,2,3-triazol-4-yl)-4-(isopropylamino)pyridin-2-yl)-1H-pyrazolo[3,4-b]pyridine-5-carbonitrile, TFA] | 3 nM | 5.5 ×10⁻⁶ cm/s | 400 nM |
| CC(C)Nc1cc(-n2ncc3cc(C#N)c(N)nc32)ncc1-c1cn(CCCO)nn1 [Example 29, 6-amino-1-(5-(1-(3-hydroxypropyl)-1H-1,2,3-triazol-4-yl)-4-(isopropylamino)pyridin-2-yl)-1H-pyrazolo[3,4-b]pyridine-5-carbonitrile] | 4 nM | < 1.5 ×10⁻⁶ cm/s | 380 nM |
| CC(C)(O)CCc1cn(-c2cnc(-n3ncc4cc(C#N)cnc43)cc2NC2CCOC2)nn1 [Example 365, (S)-1-(5-(4-(3-hydroxy-3-methylbutyl)-1H-1,2,3-triazol-1-yl)-4-((tetrahydrofuran-3-yl)amino)pyridin-2-yl)-1H-pyrazolo[3,4-b]pyridine-5-carbonitrile] | 3 nM | < 1.5 ×10⁻⁶ cm/s | 410 nM |
| CC(C)Nc1cc(-n2ncc3cc(C#N)cnc32)ncc1-n1cc(CCC(C)(C)OC(=O)C2CC2)nn1 [Example 382, 4-(1-(6-(5-cyano-1H-pyrazolo[3,4-b]pyridin-1-yl)-4-(isopropylamino)pyridin-3-yl)-1H-1,2,3-triazol-4-yl)-2-methylbutan-2-yl cyclopropanecarboxylate] | 2 nM | 24.8 ×10⁻⁶ cm/s | 460 nM |
| CC(C)Nc1cc(-n2ncc3cc(C#N)cnc32)ncc1-n1cc(CCC(C)(C)OC(=O)CN(C)C)nn1 [Example 384, 4-(1-(6-(5-cyano-1H-pyrazolo[3,4-b]pyridin-1-yl)-4-(isopropylamino)pyridin-3-yl)-1H-1,2,3-triazol-4-yl)-2-methylbutan-2-yl dimethylglycinate] | 2 nM | 13.1 ×10⁻⁶ cm/s | 250 nM |
| CC(C)Nc1cc(-n2ncc3cc(C#N)cnc32)ncc1-c1cn(CC2CCO2)nn1 (stereo not drawn) [Example 123, 1-(4-(isopropylamino)-5-(1-(oxetan-2-ylmethyl)-1H-1,2,3-triazol-4-yl)pyridin-2-yl)-1H-pyrazolo[3,4-b]pyridine-5-carbonitrile] | 5 nM | 24.4 ×10⁻⁶ cm/s | 240 nM |
| CC(C)(O)CCc1cn(-c2cnc(-n3ncc4cc(C#N)cnc43)cc2NC2CC(F)(F)C2)nn1 [Example 367, 1-(4-((3,3-difluorocyclobutyl)amino)-5-(4-(3-hydroxy-3-methylbutyl)-1H-1,2,3-triazol-1-yl)pyridin-2-yl)-1H-pyrazolo[3,4-b]pyridine-5-carbonitrile] | 9 nM | 3.6 ×10⁻⁶ cm/s | 230 nM |

The remaining compounds from weak to strong by IC50 (IRAK4), led by results:

| IC50 (IRAK4) | Papp at 2 h, 3 µM [1] | EC50 [2] | Structure (SMILES) |
| --- | --- | --- | --- |
| 16 nM | < 1.5 ×10⁻⁶ cm/s | 390 nM | CC(=O)N1CC[C@@H](n2cc(-c3cnc(-n4ncc5cc(C#N)cnc54)cc3NC(C)C)nn2)[C@@H](O)C1 [Example 191, 1-(5-(1-((3S,4R)-1-acetyl-3-hydroxypiperidin-4-yl)-1H-1,2,3-triazol-4-yl)-4-(isopropylamino)pyridin-2-yl)-1H-pyrazolo[3,4-b]pyridine-5-carbonitrile] |
| 7 nM | 6.7 ×10⁻⁶ cm/s | 270 nM | CCNc1cc(-n2ncc3cc(C#N)cnc32)ncc1-n1cc(CCC(C)(C)O)nn1 [Example 369, 1-(4-(ethylamino)-5-(4-(3-hydroxy-3-methylbutyl)-1H-1,2,3-triazol-1-yl)pyridin-2-yl)-1H-pyrazolo[3,4-b]pyridine-5-carbonitrile] |
| 6 nM | < 1.5 ×10⁻⁶ cm/s | 280 nM | CC(=O)N1CCC(n2cc(-c3cnc(-n4ncc5cc(C#N)cnc54)cc3NC(C)C)nn2)C1 (stereo not drawn) [Example 157, 1-(5-(1-(1-acetylpyrrolidin-3-yl)-1H-1,2,3-triazol-4-yl)-4-(isopropylamino)pyridin-2-yl)-1H-pyrazolo[3,4-b]pyridine-5-carbonitrile] |
| 6 nM | 43.8 ×10⁻⁶ cm/s | 350 nM | CC(C)Nc1cc(-n2ncc3cc(C#N)cnc32)ncc1-c1cc([C@@H]2COC(C)(C)O2)no1 [Example 420, (R)-1-(5-(3-(2,2-dimethyl-1,3-dioxolan-4-yl)isoxazol-5-yl)-4-(isopropylamino)pyridin-2-yl)-1H-pyrazolo[3,4-b]pyridine-5-carbonitrile] |
| 4 nM | 17.1 ×10⁻⁶ cm/s | 440 nM | CC(=O)N1CC(n2cc(-c3cnc(-n4ccc5cc(C#N)cnc54)cc3NC(C)C)nn2)C1 [Example 162, 1-(5-(1-(1-acetylazetidin-3-yl)-1H-1,2,3-triazol-4-yl)-4-(isopropylamino)pyridin-2-yl)-1H-pyrrolo[2,3-b]pyridine-5-carbonitrile, TFA] |
| 3 nM | 23.7 ×10⁻⁶ cm/s | 460 nM | CCCn1cc(-c2cnc(-n3ncc4cc(C#N)c(N)nc43)cc2NC2CC2)nn1 [Example 35, 6-amino-1-(4-(cyclopropylamino)-5-(1-propyl-1H-1,2,3-triazol-4-yl)pyridin-2-yl)-1H-pyrazolo [3,4-b]pyridine-5-carbonitrile] |
| 3 nM | 7.4 ×10⁻⁶ cm/s | 200 nM | CC(C)Nc1cc(-n2ncc3cc(C#N)cnc32)ncc1-n1cc(CCC(C)(C)O)nn1 [Example 327, 1-(5-(4-(3-hydroxy-3-methylbutyl)-1H-1,2,3-triazol-1-yl)-4-(isopropylamino)pyridin-2-yl)-1H-pyrazolo[3,4-b]pyridine-5-carbonitrile] |
| 2 nM | 33 ×10⁻⁶ cm/s | 560 nM | CC(C)Nc1cc(-n2ccc3cncnc32)ncc1-c1cn(CCN2CCOCC2)nn1 [Example 3, N-isopropyl-5-(1-(2-morpholinoethyl)-1H-1,2,3-triazol-4-yl)-2-(7H-pyrrolo[2,3-d]pyrimidin-7-yl)pyridin-4-amine] |
| 2 nM | 4.5 ×10⁻⁶ cm/s | 430 nM | CC(=O)Cn1cc(-c2cnc(-n3ncc4cc(C#N)cnc43)cc2NC(C)C)nn1 [Example 170, 1-(4-(isopropylamino)-5-(1-(2-oxopropyl)-1H-1,2,3-triazol-4-yl)pyridin-2-yl)-1H-pyrazolo[3,4-b]pyridine-5-carbonitrile] |
| 2 nM | 10.6 ×10⁻⁶ cm/s | 330 nM | COC(=O)N[C@H]1CC[C@H](n2cc(-c3cnc(-n4ncc5cc(C#N)cnc54)cc3NC(C)C)nn2)CC1 [Example 393, methyl ((1r,4r)-4-(4-(6-(5-cyano-1H-pyrazolo[3,4-b]pyridin-1-yl)-4-(isopropylamino)pyridin-3-yl)-1H-1,2,3-triazol-1-yl)cyclohexyl)carbamate] |
| 1 nM | 6.8 ×10⁻⁶ cm/s | 300 nM | CC(C)(O)CCc1cn(-c2cnc(-n3ncc4cc(C#N)cnc43)cc2N[C@@H]2CCC[C@@H]2F)nn1 [Example 375, 1-(4-(((1R,2S)-2-fluorocyclopentyl)amino)-5-(4-(3-hydroxy-3-methylbutyl)-1H-1,2,3-triazol-1-yl)pyridin-2-yl)-1H-pyrazolo[3,4-b]pyridine-5-carbonitrile] |
